PubChem BioAssay (NCI)
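How tested: cells in 96-well plates exposed to compound for 48 hours at five concentrations. Definition used: TGI = concentration required for complete inhibition of growth.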

Assays:
Test in all cases: DTP human tumour cell line panel, 48 h
786-0 renal = test system: 786-0 renal
A498 renal = test system: A498 renal
EKVX NSCLC = test system: EKVX NSCLC
HCT-15 colon = test system: HCT-15 colon
HOP-62 NSCLC = test system: HOP-62 NSCLC
HT29 colon = test system: HT29 colon
MOLT-4 leukemia = test system: MOLT-4 leukemia
NCI-H226 lung = test system: NCI-H226 lung
RPMI-8226 leukemia = test system: RPMI-8226 leukemia
RXF 393 renal = test system: RXF 393 renal
SK-MEL-28 melanoma = test system: SK-MEL-28 melanoma
SK-OV-3 ovarian = test system: SK-OV-3 ovarian
SR leukemia = test system: SR leukemia
U251 CNS = test system: U251 CNS
UACC-62 melanoma = test system: UACC-62 melanoma
BT-549 breast = test system: BT-549 breast
DU-145 prostate = test system: DU-145 prostate

Row | SMILES | TGI (786-0 renal) [µM] | TGI (A498 renal) [µM] | TGI (EKVX NSCLC) [µM] | TGI (HCT-15 colon) [µM] | TGI (HOP-62 NSCLC) [µM] | TGI (HT29 colon) [µM] | TGI (MOLT-4 leukemia) [µM] | TGI (NCI-H226 lung) [µM] | TGI (RPMI-8226 leukemia) [µM] | TGI (RXF 393 renal) [µM] | TGI (SK-MEL-28 melanoma) [µM] | TGI (SK-OV-3 ovarian) [µM] | TGI (SR leukemia) [µM] | TGI (U251 CNS) [µM] | TGI (UACC-62 melanoma) [µM] | TGI (BT-549 breast) [µM] | TGI (DU-145 prostate) [µM]
1 | C=C1C(=O)OC2C[C@H](C)C3CC(=O)C(C)=C3CC12 (some centres not stated) | 26.1 | 43.7 | 32.8 | 25.9 | > 54.4 | 31 | 23.3 | 30.6 | 21.9 | 31.6 | 18.7 | > 100 | 22.3 | 18.1 | 25.9 | – | –
2 | CC1=Nc2nc3ccccc3n2C(C)(C)C1 | > 100 | > 100 | > 100 | > 100 | > 100 | > 100 | > 100 | > 100 | > 100 | > 100 | – | > 100 | > 100 | > 100 | > 100 | > 100 | –
3 | CC(=O)c1ccc(N2CCN(c3c(O)c4c(c(O)c3Cl)C(=O)C=CC4=O)CC2)cc1 | 27.2 | 33.7 | 46.7 | > 100 | 21 | – | 4.57 | – | 9.43 | 9.44 | 16.8 | – | 8.33 | 11.9 | 7.37 | – | 31.2
4 | O=C1NC2OCC(O)C(O1)C2O (configuration not stated) | > 100 | > 100 | > 100 | > 100 | > 100 | > 100 | > 100 | > 100 | > 100 | > 100 | > 100 | > 100 | > 100 | > 100 | > 100 | – | –
5 | COc1nc(/C=N/NC(N)=S)nc(OC)n1 | > 100 | > 100 | > 100 | – | – | > 100 | > 100 | > 100 | > 100 | > 100 | > 100 | > 100 | > 100 | > 100 | > 100 | – | –
6 | CC1(C)N(OC2CCCCO2)C(c2ccccc2)C(c2ccccc2)=[N+]1[O-] (configuration not stated) | > 100 | > 100 | > 100 | > 100 | > 100 | > 100 | > 100 | > 100 | – | > 100 | > 100 | > 100 | > 100 | > 100 | > 100 | > 100 | –
7 | COc1c(C(=O)/C(=N/Nc2ccccc2)C(C)=O)c(O)c(OC)c2occc12 | > 100 | – | > 100 | > 100 | > 100 | > 100 | > 100 | > 100 | > 100 | > 100 | > 100 | > 100 | > 100 | > 100 | > 100 | – | > 100
8 | COC(=O)C(/C(=N/N)C(=O)Nc1ccc(C)c(C)c1)c1nc2ccc(Cl)cc2[nH]c1=O (configuration not stated) | > 100 | > 100 | > 100 | > 100 | > 100 | > 100 | > 100 | > 100 | > 100 | > 100 | > 100 | > 100 | > 100 | > 100 | > 100 | > 100 | –
9 | C/C(=N\Nc1nc2ccccc2[nH]1)c1ccncn1 | > 100 | 6.38 | 43.2 | > 100 | 1.3 | > 100 | > 100 | – | – | – | > 63 | 64.3 | > 100 | > 100 | – | > 100 | –
10 | OC(c1ccsc1)c1cc2ccccc2s1 (configuration not stated) | > 10 | – | > 10 | > 10 | > 10 | > 10 | > 10 | > 10 | > 10 | > 10 | > 10 | > 10 | > 10 | > 10 | > 10 | – | > 10
11 | Cc1ccc(C2(C)NC(=S)N(NC(N)=S)C2=S)cc1 (configuration not stated) | > 100 | > 100 | > 100 | > 100 | > 100 | – | > 100 | > 100 | > 100 | > 100 | > 100 | – | > 100 | > 100 | > 100 | – | –
12 | Cc1cc(=O)oc2c(CNC(C)C(=O)O)c(O)ccc12 (configuration not stated) | > 100 | – | > 100 | > 100 | > 100 | > 100 | > 100 | > 100 | > 100 | > 100 | > 100 | > 100 | > 100 | > 100 | > 100 | – | > 100
13 | CSC(=NC1CC(n2cc(C)c(=O)[nH]c2=O)OC1CO)NC#N (configuration not stated) | > 100 | > 100 | > 100 | > 100 | > 100 | > 100 | > 100 | > 100 | – | > 100 | > 100 | > 100 | – | > 100 | > 100 | – | > 100
14 | C=CC1(c2ccc3ccccc3c2)OCC(CC)(CC)CO1 | 50.9 | – | – | 35.1 | 84.4 | 57.5 | 38.8 | 33.4 | 80.4 | 36.2 | > 100 | > 100 | – | 42 | 46 | – | > 100
15 | Cc1ccc(-c2c(C#N)c(-c3ccc([N+](=O)[O-])cc3)c(C#N)c(=O)n2NS(=O)(=O)c2ccc(C)cc2)cc1 | > 100 | > 100 | > 100 | > 100 | > 100 | > 100 | 50.1 | > 100 | 47 | > 100 | > 100 | > 100 | – | > 100 | > 100 | > 100 | –
16 | CCOC(=O)C1=C(OS(=O)(=O)C(F)(F)F)CCCC1 | > 100 | > 100 | > 100 | > 100 | > 100 | > 100 | > 100 | > 100 | > 100 | > 100 | > 100 | > 100 | > 100 | > 100 | > 100 | – | > 100
17 | C=C[C@@]1(C)CC2CC[C@]3(C)C(C)=CC(=O)CC3[C@]2(C)CC1O (some centres not stated) | > 100 | > 100 | > 100 | > 100 | > 100 | > 100 | > 100 | > 100 | > 100 | > 100 | > 100 | > 100 | > 100 | > 100 | > 100 | – | > 100
18 | Cc1ccc(S(=O)(=O)c2c(N)c3nccn3c3nc4ccccc4nc23)cc1 | > 100 | – | > 100 | > 100 | > 100 | – | > 100 | – | > 100 | – | > 100 | > 100 | > 100 | > 100 | > 100 | – | –
19 | CC(C)=CCC/C(C)=C/CC/C(C)=C/CC/C=C(\C)CC/C=C(\C)CCC1SC1(C)C (configuration not stated) | > 100 | > 100 | > 100 | > 100 | > 100 | > 100 | > 100 | > 100 | > 100 | > 100 | > 100 | > 100 | – | > 100 | > 100 | – | –
20 | CC1=C2C(=O)C3[C@@H](CCC4=CC(=O)CC[C@@]43C)C2CC[C@]12O[C@@H]1C[C@H](C)CN[C@H]1[C@H]2C (some centres not stated) | > 100 | > 100 | > 100 | > 100 | 68.2 | > 100 | 41.4 | > 100 | 49.7 | > 100 | > 100 | > 100 | 43.4 | 51.5 | 61 | – | –
21 | Nc1ncnc2c1ncn2[C@@H]1C[C@H]1CO | > 100 | > 100 | > 100 | > 100 | > 100 | > 100 | > 100 | > 100 | > 100 | – | – | – | > 100 | > 100 | – | – | –
22 | Cc1ccccc1N=Cc1ccc(N(CCC#N)S(=O)(=O)c2ccccc2)cc1 | > 100 | > 100 | > 100 | > 100 | > 100 | > 100 | > 100 | > 100 | > 100 | > 100 | > 100 | > 100 | > 100 | > 100 | > 100 | – | –
23 | Cc1ccc(S(=O)(=O)NC(=O)C2(Br)S(=O)(=O)OCCOS2(=O)=O)cc1 | > 100 | > 100 | > 100 | > 100 | > 100 | > 100 | > 100 | > 100 | > 100 | > 100 | > 100 | > 100 | > 100 | > 100 | > 100 | – | –
24 | COc1ccc(-c2nc(N(C)C)c3ccccc3n2)cc1 | 32.3 | – | 22.3 | 37.8 | 51.5 | 22.7 | 15.8 | 21.8 | 24.3 | 24.7 | 33.7 | 48.2 | 29.1 | 80 | 37.6 | 43.5 | –
25 | Cn1c(N(CCO)CCO)cnc1[N+](=O)[O-] | > 100 | > 100 | > 100 | > 100 | > 100 | > 100 | > 100 | > 100 | > 100 | > 100 | – | > 100 | > 100 | > 100 | > 100 | > 100 | –
